In patent US20260226493A1, “HERBICIDE RESISTANT PLANTS” (SYNGENTA CROP PROTECTION AG, priority 2023, published 2026):

Legend:
Format in all cases: biochemical
Bacillus subtilis BioA = experiment: BioA enzyme activity with DMSO or herbicide in vitro; conditions: spermidine in substrate mix
Source text: (§1) A pet-24 plasmid containing a DNA sequence encoding each identified variant mutant of BIO3-BIO1 derived from Arabidopsis thaliana from example 5 above, as shown in Table 13 below and as shown in full in SEQ ID NOs: 15 to 155, codon-optimised for expression in E. coli, with an N-terminal 6×His-tag and thrombin cleavage site and under control of a T7 promoter, and was synthesised by Twist Bioscience, in a similar manner to SEQ ID NO:311. These plasmids were then expressed in E. coli BL21 (DE3) bioA with 50 μg/mL kanamycin and 25 μg/mL chloramphenicol selection. Overnight cultures grown at 37° C. were used to inoculate 8×500 mL AIM in shake flasks at a ratio of 1:100. Cultures were grown at 37° C., 200 rpm for 3.5 hours and then overnight at 20° C. Cells were harvested by centrifugation for 30 minutes at 10 000 g. Cells were stored at −80° C. until extraction. 30 g of cell pellet from was thawed in 120 mL of IMAC buffer A (20 mM HEPES pH7.5, 25 mM imidazole, 500 mM sodium chloride, 0.15 mM pyridoxal phosphate, 0.5 mM TCEP, 1× complete Protease Inhibitor Tablet (Roche)). The resuspension was passed through a cell disrupter at 18 000 PSI and centrifuged at 50 000 g for 25 minutes at 4° C. The His-tagged BIO3-BIO1 protein was purified from the extract supernatant on an AKTA avant chromatography system (Cytiva) using a HisTrap FF column and eluted in IMAC buffer B ((20 mM HEPES pH7.5, 500 mM imidazole, 500 mM sodium chloride, 0.15 mM pyridoxal phosphate, 0.5 mM TCEP) followed by SEC using a HiLoad 26/60 Superdex200 column in SEC buffer (25 mM HEPES pH7.5, 150 mM sodium chloride, 0.15 mM pyridoxal phosphate, 0.5 mM TCEP). Protein concentration was measured and calculated using the absorbance at 280 nm. Extracts were diluted 1 in 4 and 10 uL was analysed by SDS PAGE.
(§2) To measure BIO3-BIO1 mutant enzyme activity in the presence of herbicide, herbicides were incubated with 20 μL of enzyme mix (100 mM EPPS pH 8.6, 0.1 mM pyridoxal phosphate, 0.1 mg/mL BSA, 50 nM BIO3-BIO1 enzyme) for 10 minutes at 20° C. in a well of a 96-well half-area black plate, followed by the addition of 20 μL of substrate mix (final concentration of 100 mM EPPS pH 8.6, 0.1 mM pyridoxal phosphate, 0.1 mg/mL BSA, 100 μM spermidine, 20 μM KAPA, 100 mM NaCO3) and further incubation for 75 minutes at 20° C. The reaction was terminated by the addition of 50 μL of derivatisation mix (final concentration of 250 mM borate NaOH pH 9.4, 3.6 mM o-phthalaldehyde, 7 mM β-mercaptoethanol, 17% (v/v) ethanol, 3.6% (v/v) methanol). The fluorescent product produced by the reaction of DAPA with o-phthalaldehyde and 7 mM β-mercaptoethanol was measured at 470 nm after excitation at 410 nm. The percentage inhibition was calculated as the activity in the presence of one of three concentrations of each herbicide compound A to M (note that the compounds labelled as A to M are identified hereinabove in the relevant section of the description) as a percentage of the activity in DMSO (Table 12 and 13). The percentage activity versus WT was also calculated and is shown in Table 13 and 14 (NT indicates mutation not tested in table 13, note that these mutations are tested at different compound concentrations for compounds L, M and C, and the results are shown in table 14).
(§3) Protein of Escherichia coli BioA (SEQ ID NO:159), Pantoea ananatis BioA (SEQ ID NO:167), Streptomyces viridochromogenes BioA (SEQ ID NO:170), Cryptosporidium andersoni BioA (SEQ ID NO:160), Stenotrophomonas maltophilia BioA (SEQ ID NO:171), Chroococcidiopsis BioA (SEQ ID NO:184), Pedobacter hartonius BioA (SEQ ID NO:181), Chitinophaga filiformis BioA (SEQ ID NO:180), Tenacibaculum adriaticum BioA (SEQ ID NO:185) and Bacillus subtilis BioA (SEQ ID NO:166) was prepared using the method in Example 6. BioA enzyme activity in the presence of herbicide or DMSO in vitro for each of the proteins was assayed according to the enzyme assay method in Example 6, except in some reactions spermidine was replaced with 2 mM S-Adenosyl methionine.

Pantoea ananatis BioA = experiment: as above; conditions: SAM in substrate mix
Source text: as §1, §2, §3

[1] = tested on: Chitinophaga filiformis BioA; experiment: as above; conditions: spermidine in substrate mix
Source text: as §1, §2, §3

[2] = tested on: Stenotrophomonas maltophilia BioA; experiment: as above; conditions: spermidine in substrate mix
Source text: as §1, §2, §3

[3] = tested on: Streptomyces viridochromogenes BioA; experiment: as above; conditions: SAM in substrate mix
Source text: as §1, §2, §3

[4] = tested on: Pedobacter hartonius BioA; experiment: as above; conditions: spermidine in substrate mix
Source text: as §1, §2, §3

[5] = tested on: Tenacibaculum adriaticum BioA; experiment: as above; conditions: spermidine in substrate mix
Source text: as §1, §2, §3

Escherichia coli BioA = target: T1, Escherichia coli BioA (Escherichia coli, UniProt P12995); experiment: as above; conditions: SAM in substrate mix, read-out: % Inhibition relative to DMSO treatment
T1 construct: 6xHis-tag (N); thrombin cleavage site (N); made in house; host or cells: E. coli BL21 (DE3) bioA
Source text: as §1, §2, §3

[6] = tested on: Schizosaccharomyces japonicus BioDA; experiment: BioDA enzyme activity with DMSO or herbicide in vitro
Source text: as §1, §2
(§4) The activity of various wild-type BioDA and variant enzymes was also tested when treated with DMSO or herbicide in vitro.
(§5) Protein of Schizosaccharomyces japonicus BioDA (SEQ ID NO:13), Nannochloropsis gaditana BioDA (SEQ ID NO:3), Selaginella moellendorffii BioDA (SEQ ID NO:319), Quercus robur BioDA (SEQ ID NOA11), Ostreococcus tauri BioDA (SEQ ID NO:9), and the variants of Ostreococcus tauri BioDA A374D, F332A and P407A (SEQ ID Nos:321-323) was prepared using the method in Example 6. BioDA enzyme activity in the presence of herbicide or DMSO in vitro for each of the proteins was assayed according to the enzyme assay method above. The results are shown in Table 26 provided below in the “TABLES” section.

Ostreococcus tauri BioDA = experiment: as above; conditions: Ostreococcus tauri BioDAΔMTP
Source text: as §1, §2, §4, §5

T1 sequence (P12995 whole entry): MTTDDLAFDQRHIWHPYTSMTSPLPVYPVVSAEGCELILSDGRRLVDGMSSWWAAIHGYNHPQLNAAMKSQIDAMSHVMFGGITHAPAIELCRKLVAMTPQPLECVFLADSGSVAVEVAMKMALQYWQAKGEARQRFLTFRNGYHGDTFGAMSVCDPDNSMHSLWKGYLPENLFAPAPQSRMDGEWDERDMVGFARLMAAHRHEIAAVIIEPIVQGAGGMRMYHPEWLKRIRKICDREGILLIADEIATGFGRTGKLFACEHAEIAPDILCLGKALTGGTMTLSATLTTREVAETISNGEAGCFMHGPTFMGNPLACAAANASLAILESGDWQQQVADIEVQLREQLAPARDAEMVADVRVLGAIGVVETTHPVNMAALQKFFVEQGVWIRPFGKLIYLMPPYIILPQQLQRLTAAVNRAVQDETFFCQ

| SMILES | % Inhibition relative to DMSO treatment (Bacillus subtilis BioA; 200 μM) [%] | % Inhibition relative to DMSO treatment (Pantoea ananatis BioA; 200 μM) [%] | % Inhibition relative to DMSO treatment ([1]; 200 μM) [%] | % Inhibition relative to DMSO treatment ([2]; 200 μM) [%] | % Inhibition relative to DMSO treatment ([3]; 200 μM) [%] | % Inhibition relative to DMSO treatment ([4]; 200 μM) [%] | % Inhibition relative to DMSO treatment ([5]; 200 μM) [%] | inhibition at 200 µM (Escherichia coli BioA) [%] | % Inhibition relative to DMSO treatment ([6]; 200 μM) [%] | % Inhibition relative to DMSO treatment (Ostreococcus tauri BioDA; 200 μM) [%] | % Inhibition relative to DMSO treatment (Bacillus subtilis BioA; 0.5 μM) [%] | % Inhibition relative to DMSO treatment (Pantoea ananatis BioA; 0.5 μM) [%] | % Inhibition relative to DMSO treatment ([1]; 0.5 μM) [%] | % Inhibition relative to DMSO treatment ([2]; 0.5 μM) [%] | % Inhibition relative to DMSO treatment ([3]; 0.5 μM) [%] | % Inhibition relative to DMSO treatment ([4]; 0.5 μM) [%] | % Inhibition relative to DMSO treatment ([5]; 0.5 μM) [%] | inhibition at 0.5 µM (Escherichia coli BioA) [%] | % Inhibition relative to DMSO treatment ([6]; 0.5 μM) [%] | % Inhibition relative to DMSO treatment (Ostreococcus tauri BioDA; 0.5 μM) [%] | further results |
| --- | --- | --- | --- | --- | --- | --- | --- | --- | --- | --- | --- | --- | --- | --- | --- | --- | --- | --- | --- | --- | --- |
| CCOC(=O)c1nn(-c2ccc3c(c2)OC(F)(F)C(F)(F)O3)c2cccc(C(C)=O)c2c1=O [Compound A, ethyl 5-acetyl-4-oxo-1-(2,2,3,3-tetrafluoro-1,4-benzodioxin-6-yl)cinnoline-3-carboxylate] | – | – | – | – | – | – | – | – | – | – | – | – | – | – | – | – | – | – | – | – | % Inhibition relative to DMSO treatment (Bacillus subtilis BioA; 25 μM): 0%; % Inhibition relative to DMSO treatment (Pantoea ananatis BioA; 25 μM): 7%; % Inhibition relative to DMSO treatment ([1]; 25 μM): 0%; % Inhibition relative to DMSO treatment ([2]; 25 μM): 0%; % Inhibition relative to DMSO treatment ([3]; 25 μM): 0%; % Inhibition relative to DMSO treatment ([4]; 25 μM): 6%; % Inhibition relative to DMSO treatment ([5]; 25 μM): 14%; inhibition at 25 µM (Escherichia coli BioA; 25 μM): 6%; % Inhibition relative to DMSO treatment ([6]; 25 μM): 2%; % Inhibition relative to DMSO treatment (Ostreococcus tauri BioDA; 25 μM): 0% |
| CC(O)C(N)CCCCC(=O)O.Cl (centres unmarked) [Compound B, [5-carboxy-1-(1-hydroxyethyl)pentyl]ammonium chloride] | 0 | 15 | 12 | 50 | 0 | 96 | 18 | 9 | 70 | 62 | – | – | – | – | – | – | – | – | – | – | inhibition at 31 µM (Escherichia coli BioA; 31 μM): 4%; inhibition at 500 µM (Escherichia coli BioA; 500 μM): 23% |
| CCn1c(C)c(-c2ccc(F)cc2F)c(=O)c(C(=O)O)c1-c1ccc(Cl)c(Cl)c1 [Compound C, 2-(3,4-dichlorophenyl)-5-(2,4-difluorophenyl)-1-ethyl-6-methyl-4-oxo-pyridine-3-carboxylic acid] | – | – | – | – | – | – | – | – | – | – | 0 | 11 | 12 | 0 | 0 | 0 | 19 | 8 | 17 | 0 | – |
| CCn1c(C)c(-c2cc(OC(F)(F)F)ccc2Cl)c(=O)c(C(=O)O)c1-c1ccc(Cl)c(Cl)c1 [Compound D, 5-[2-chloro-5-(trifluoromethoxy)phenyl]-2-(3,4-dichlorophenyl)-1-ethyl-6-methyl-4-oxo-pyridine-3-carboxylic acid] | – | – | – | – | – | – | – | – | – | – | 0 | 6 | 0 | 76 | 0 | 7 | 5 | 6 | 87 | 0 | % Inhibition relative to DMSO treatment (Ostreococcus tauri BioDA; 5 μM): 36% |
| C[C@@H](N)COc1cccc(C(=O)O)n1.Cl.Cl [Compound E, [(1R)-2-(6-carboxypyridin-1-ium-2-yl)oxy-1-methyl-ethyl]ammonium dichloride] | 0 | 15 | 28 | 74 | 0 | 80 | 16 | 12 | 28 | 53 | – | – | – | – | – | – | – | – | – | – | – |
